Measured values as given in US7691624B2, “Cancer cell detecting devices” (Academia Sinica, priority 2003, dated 2010).

Legend:
[1] = system: CL1-0 cancer cells; assay: Stained cells spread onto cover slip, fluorescent cells counted; type: cell-based; details: 0.02 μM AO, 5 minutes, cover slip, LED
Description: Further, the role of the ratio of the cells stained by Compound 2/AO in cancer diagnosis was studied. Specifically, CL1-0 cancer cells, NIH3T3 normal cells, and their 1:10 mixture were respectively stained with 0.02 μM AO and 1.5 μM Compound 2 for 5 minutes in eppendorfs. Each sample was then taken from the eppendorf and spread onto a cover slip. Fluorescence emissions were recorded by a color camera upon an LED illumination. […] A statistical histogram of the ratio of the cell stained with Compound 2/AO to the ratio of the CL1-0 cells to the sum of NIH3T3 and CL1-0 cells was plotted. Each spot on the histogram represented an average of 5-10 measurements from a single sample.

[2] = system: HeLa cancer cells; assay: Fluorescence of stained cells in eppendorf under LED, recorded by camera; type: cell-based; details: Cancer cells (H) HeLa
Description: (§1) Human lung CL1-0 cancer cells or MRC-5 normal cells were incubated with 0.5 μM of Compound 2 and acridine orange (AO). After incubation in standard culture medium for 1 hour, the non-fixed cells were removed by washing the culture three times with phosphate buffered saline (PBS). The fixed cells were collected in an eppendorf by trypsinization. The eppendorf was centrifuged and then illuminated by an light emitting diode (LED) emitting excitation light with a center wavelength at 470 nm. A conventional digital camera was used to record the fluorescence. Table 1 summarizes the numbers of cells required to distinguish cancer cells from normal cells based on fluorescence emission of Compound 2 and AO recorded by a camera under different experimental conditions. Specifically, Compound 2 and AO were incubated with four different cells in eppendorf, i.e., MRC-5 normal cells, primary fibroblast, CL1-0 cancer cells, and HeLa cancer cells.

[3] = system: primary fibroblast; assay: as above; type: cell-based; details: Normal cells (F) primary fibroblast
Description: as §1

[4] = system: CL1-0 cancer cells; assay: as above; type: cell-based, human; details: for Numbers of cells required to distinguish cancer cells and normal cells: Cancer cells (C) CL1-0
Description: as §1

[5] = system: MRC-5 normal cells; assay: as above; type: cell-based, human; details: for Numbers of cells required to distinguish cancer cells and normal cells: Normal cells (M) MRC-5
Description: as §1

[6] = Fluorescence analysis in aqueous solution; type: physicochemical; details: λex≈430 nm, no DNA
Description: (§2) Compound 2 was mixed with eleven DNAs and subjected to fluorescence analysis at λex≈430 nm, using a Hitachi F4010 spectrofluorimeter with a 2 nm bandwidth in a 1-cm cell. Fluorescence analysis was also carried out for compound 4 in the presence of Hum24. […] Further, the fluorescence peaks for a complex of compound 2 and a DNA duplex and a complex of compound 2 and a DNA quadruplex were at ˜550 nm and ˜575 nm, respectively.

[7] = system: DNA; assay: Fluorescence analysis in the presence of a DNA; type: binding; details: λex≈430 nm; compound 2 with eleven DNAs, compound 4 with Hum24
Description: as §2

[8] = system: Hum24 quadruplex; assay: Temperature-dependent CD analysis; type: binding, human
Excerpt: Eight DNA quadruplexes and their complexes with compound 2 were subjected to CD analysis. CD spectra were averaged 10 scans on a Jasco J-715 spectropolarimeter with a 2 nm bandwidth. The scan speed was 50 nm/min and the step resolution was 0.2 nm.
Further, Hum24 and its complexes with compounds 2, 4, 6, and 8 were subjected to temperature-dependent CD analysis.

## CN(C)c1ccc2cc3ccc(N(C)C)cc3nc2c1 [AO, acridine orange, reference compound]
[1]
  number of stained cells showing fluorescence: 150
[2]; 0.05 μM/1 hr
  Numbers of cells required to distinguish cancer cells and normal cells: 3,000 (H)
[2]; 0.1 μM/1 hr
  Numbers of cells required to distinguish cancer cells and normal cells: 2,000 (H)
[3]; 0.05 μM/1 hr
  Numbers of cells required to distinguish cancer cells and normal cells: 4,000 (F)
[3]; 0.1 μM/1 hr
  Numbers of cells required to distinguish cancer cells and normal cells: 2,000 (F)
[4]; 0.5 μM, 1 hour, LED 470 nm
  fluorescence emission in eppendorf: fluorescence emission was detected
[4]; 0.1 μM/30 min
  Numbers of cells required to distinguish cancer cells and normal cells: 2,000 (C)
[4]; 0.5 μM/1 hr
  Numbers of cells required to distinguish cancer cells and normal cells: 1,000 (C)
[5]; 0.5 μM, 1 hour, LED 470 nm
  fluorescence emission in eppendorf: fluorescence emission was detected
[5]; 0.1 μM/30 min
  Numbers of cells required to distinguish cancer cells and normal cells: 3,000 (M)
[5]; 0.5 μM/1 hr
  Numbers of cells required to distinguish cancer cells and normal cells: 2,000 (M)

## C[n+]1ccccc1C=Cc1ccc2[nH]c3ccc(C=Cc4cccc[n+]4C)cc3c2c1.[I-].[I-] [Compound 4, 3,6-bis-(2-(1-methylpyridinium-2-yl)-vinyl)-9H-carbazole diiodide]
[6]
  fluorescence in an aqueous solution: weak
[7]
  increase of fluorescence intensity in the presence of a DNA: two orders of magnitude
[8]
  melting temperature of Hum24 quadruplex in the presence of compound: increased

## C[n+]1ccnc(C=Cc2ccc3[nH]c4ccc(C=Cc5c[n+](C)ccn5)cc4c3c2)c1.[I-].[I-] [Compound 6, 3,6-bis-(2-(4-methylpyrazin-4-ium-2-yl)-vinyl)-9H-carbazole diiodide]
[8]
  melting temperature of Hum24 quadruplex in the presence of compound: increased

## C[n+]1ccc(C=Nc2ccc3[nH]c4ccc(N=Cc5cc[n+](C)cc5)cc4c3c2)cc1.[I-].[I-] [Compound 8, N,N′-bis-((1-methylpyridinium-4-yl)methylidene)-9H-carbazole-3,6-diamine diiodide]
[8]
  melting temperature of Hum24 quadruplex in the presence of compound: increased
